According to ChEMBL document CHEMBL2073885, “Azelastine and flezelastine as reversing agents of multidrug resistance: pharmacological and molecular studies” (Biochem Pharmacol, 1995):

How the values were obtained:
Format in all cases: functional, cell-based
[1] = target: Multidrug resistance protein 1a (Rattus norvegicus) (UniProt Q6PSM0); assay: TP_TRANSPORTER: increase in Doxorubicin intracellular accumulation (Doxorubicin: 17.2 uM, Azelastine: 30 uM) in C6 0.5 cells
[2] = target: T1, ATP-dependent translocase ABCB1 (Rattus norvegicus, UniProt P43245); assay: TP_TRANSPORTER: increase in Doxorubicin intracellular accumulation (Doxorubicin: 17.2 uM, Azelastine: 10 uM) in C6 1V cells
[3] = target: Multidrug resistance protein 1a (Rattus norvegicus) (UniProt Q6PSM0); assay: TP_TRANSPORTER: increase in Doxorubicin intracellular accumulation (Doxorubicin: 17.2 uM, Flezelastine: 10 uM) in C6 0.5 cells
[4] = target: T1, ATP-dependent translocase ABCB1; assay: TP_TRANSPORTER: increase in Doxorubicin intracellular accumulation (Doxorubicin: 17.2 uM, Flezelastine: 3 uM) in C6 1V cells

Chain of Multidrug resistance protein 1a (Rattus norvegicus) (Q6PSM0 as listed by the source): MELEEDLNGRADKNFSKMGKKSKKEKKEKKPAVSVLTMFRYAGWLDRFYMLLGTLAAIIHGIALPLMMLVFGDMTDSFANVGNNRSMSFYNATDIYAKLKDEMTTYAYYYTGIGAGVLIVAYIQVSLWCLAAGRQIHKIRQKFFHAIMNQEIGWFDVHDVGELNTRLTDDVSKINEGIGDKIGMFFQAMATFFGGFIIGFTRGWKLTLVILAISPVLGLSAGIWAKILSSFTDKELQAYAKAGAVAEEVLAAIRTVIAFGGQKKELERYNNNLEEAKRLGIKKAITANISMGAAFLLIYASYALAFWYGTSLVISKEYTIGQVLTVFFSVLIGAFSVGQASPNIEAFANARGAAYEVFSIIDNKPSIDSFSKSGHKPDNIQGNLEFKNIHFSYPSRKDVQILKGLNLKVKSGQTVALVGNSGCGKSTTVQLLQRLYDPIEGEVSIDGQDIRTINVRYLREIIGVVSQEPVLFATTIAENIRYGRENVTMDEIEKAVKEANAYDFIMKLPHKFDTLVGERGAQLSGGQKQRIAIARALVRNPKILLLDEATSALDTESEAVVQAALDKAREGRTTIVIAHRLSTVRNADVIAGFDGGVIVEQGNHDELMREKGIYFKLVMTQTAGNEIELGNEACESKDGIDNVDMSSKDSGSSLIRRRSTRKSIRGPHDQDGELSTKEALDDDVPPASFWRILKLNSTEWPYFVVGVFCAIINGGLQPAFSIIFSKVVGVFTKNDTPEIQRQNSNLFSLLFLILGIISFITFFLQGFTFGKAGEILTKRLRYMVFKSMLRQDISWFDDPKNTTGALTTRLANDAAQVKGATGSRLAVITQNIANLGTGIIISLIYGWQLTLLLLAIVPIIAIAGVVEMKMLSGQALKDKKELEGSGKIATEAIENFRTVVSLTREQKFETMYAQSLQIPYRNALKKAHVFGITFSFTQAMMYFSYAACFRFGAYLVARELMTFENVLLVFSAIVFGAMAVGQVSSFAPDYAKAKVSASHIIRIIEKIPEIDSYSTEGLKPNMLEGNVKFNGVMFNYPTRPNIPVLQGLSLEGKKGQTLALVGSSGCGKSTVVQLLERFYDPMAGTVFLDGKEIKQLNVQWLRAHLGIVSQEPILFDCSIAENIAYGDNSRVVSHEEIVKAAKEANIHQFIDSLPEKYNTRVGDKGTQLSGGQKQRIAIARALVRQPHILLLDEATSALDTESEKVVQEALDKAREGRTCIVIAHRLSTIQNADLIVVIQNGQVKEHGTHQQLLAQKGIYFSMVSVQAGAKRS
T1 sequence (P43245 whole entry): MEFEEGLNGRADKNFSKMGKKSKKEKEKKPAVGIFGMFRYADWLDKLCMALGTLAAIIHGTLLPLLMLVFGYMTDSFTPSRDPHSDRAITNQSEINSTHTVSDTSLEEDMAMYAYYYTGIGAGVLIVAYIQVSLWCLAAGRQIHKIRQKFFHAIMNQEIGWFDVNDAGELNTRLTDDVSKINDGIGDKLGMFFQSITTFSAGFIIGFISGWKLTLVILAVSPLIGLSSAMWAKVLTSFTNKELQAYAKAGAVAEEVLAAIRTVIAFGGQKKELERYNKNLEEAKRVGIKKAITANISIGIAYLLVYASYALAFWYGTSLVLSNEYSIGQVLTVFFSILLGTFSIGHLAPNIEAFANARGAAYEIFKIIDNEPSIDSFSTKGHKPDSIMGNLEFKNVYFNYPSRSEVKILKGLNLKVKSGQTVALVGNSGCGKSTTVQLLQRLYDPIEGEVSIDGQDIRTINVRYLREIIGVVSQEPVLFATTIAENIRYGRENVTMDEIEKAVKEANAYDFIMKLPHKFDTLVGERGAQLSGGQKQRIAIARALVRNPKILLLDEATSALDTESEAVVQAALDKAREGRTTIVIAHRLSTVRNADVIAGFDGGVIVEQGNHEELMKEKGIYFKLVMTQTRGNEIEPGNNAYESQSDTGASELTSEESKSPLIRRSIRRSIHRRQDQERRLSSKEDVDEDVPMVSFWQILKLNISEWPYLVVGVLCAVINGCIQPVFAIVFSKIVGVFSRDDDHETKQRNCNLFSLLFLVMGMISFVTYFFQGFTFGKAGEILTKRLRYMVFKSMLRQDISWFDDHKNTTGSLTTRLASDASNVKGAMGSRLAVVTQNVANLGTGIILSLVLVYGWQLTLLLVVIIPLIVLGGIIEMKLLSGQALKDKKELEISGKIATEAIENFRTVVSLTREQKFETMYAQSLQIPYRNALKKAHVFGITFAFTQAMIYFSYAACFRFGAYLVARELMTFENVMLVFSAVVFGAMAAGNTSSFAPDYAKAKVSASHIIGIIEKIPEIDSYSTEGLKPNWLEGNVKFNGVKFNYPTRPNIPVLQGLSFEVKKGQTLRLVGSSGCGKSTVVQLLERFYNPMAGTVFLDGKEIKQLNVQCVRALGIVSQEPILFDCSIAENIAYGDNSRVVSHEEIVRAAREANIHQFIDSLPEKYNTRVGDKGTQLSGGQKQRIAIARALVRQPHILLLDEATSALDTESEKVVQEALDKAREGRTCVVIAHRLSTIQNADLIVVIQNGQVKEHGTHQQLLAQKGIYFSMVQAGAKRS

CN1CCCC(n2nc(Cc3ccc(Cl)cc3)c3ccccc3c2=O)CC1 (centres undefined) [AZELASTINE]
Activity [1]: inhibitor [+]
Activity [2]: inhibitor [+]

O=c1c2ccccc2c(Cc2ccc(F)cc2)nn1C1CCCN(CCc2ccccc2)CC1 (centres undefined) [FLEZELASTINE]
Activity [3]: inhibitor [+]
Activity [4]: inhibitor [+]
